Source: US6096784A, “Inhibitors of oleamide hydrolase” (The Scripps Research Institute, priority 1999, dated 2000)
Values after ≈ are worked out from the molar mass of the structure shown. Where two headings read alike, the source gives them in different places.

Key:
animals = settings: cited from earlier work; for somnolescent activity: in vivo
oleamide hydrolase [1] = target: T1, oleamide hydrolase (Rattus norvegicus, UniProt P97612); assay: Oleamide hydrolase inhibition, ammonia production measured with ion-selective electrode; type: biochemical
T1 construct: The enzyme was used as a crude, heterogenous, membrane-containing preparation from rat liver; from tissue; host or cells: rat liver plasma membrane preparation (12-14 rat livers), crude
T1 sequence (P97612 1-579): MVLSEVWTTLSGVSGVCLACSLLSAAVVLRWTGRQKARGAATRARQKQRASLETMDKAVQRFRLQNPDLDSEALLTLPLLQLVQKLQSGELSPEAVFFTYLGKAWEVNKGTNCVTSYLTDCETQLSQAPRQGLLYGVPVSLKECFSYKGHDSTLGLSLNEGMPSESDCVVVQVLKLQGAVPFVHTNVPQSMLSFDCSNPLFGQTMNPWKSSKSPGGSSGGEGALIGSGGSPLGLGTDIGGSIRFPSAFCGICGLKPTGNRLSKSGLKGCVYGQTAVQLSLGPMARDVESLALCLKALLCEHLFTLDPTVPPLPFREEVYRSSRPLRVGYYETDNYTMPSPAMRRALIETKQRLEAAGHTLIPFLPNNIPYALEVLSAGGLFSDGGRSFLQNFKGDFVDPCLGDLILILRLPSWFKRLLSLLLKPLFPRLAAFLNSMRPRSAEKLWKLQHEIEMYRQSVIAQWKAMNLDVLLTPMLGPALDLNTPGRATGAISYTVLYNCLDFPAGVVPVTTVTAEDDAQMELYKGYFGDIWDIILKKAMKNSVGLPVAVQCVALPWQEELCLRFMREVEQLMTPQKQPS
Experimental: Error values presented with Ki s should be considered goodness-of-fit estimates derived from propagation of errors treatment of data. They are not necessarily an indication of reproducibility.
Twelve to fourteen rat livers were sectioned and placed in 300 mL of 1 mM NaHCO3. The solution of diced liver was strained and washed with additional 300 mL of 1 mM NaHCO3. Any conspicuous connective tissue was removed. The liver was transferred to a fresh 800 mL of 1 mM NaHCO3, stirred and then transferred in 400 mL aliquots to a blender. Blended liver aliquots were combined and filtered through 8 layers of cheesecloth. This was diluted to 1.0 L with 1 μM NaHCO3 and centrifuged at 6000 rpm for 20 minutes at 40° C. (Beckman JA-17 rotor). The supernatant was decanted, the pellets resuspended in 1 mM NaHCO3, combined and dounce homogenized. Centrifugation, decantation and resuspension/homogenization were repeated to give a final volume of approximately 90 mL. The homogenate was added to 2 volume equivalents of 67% sucrose, mixed thoroughly, and transferred to ultracentrifuge compatible tubes. The tubes were topped with 30% sucrose and spun at 27,000 for 2 hours (SW-28 rotor). The middle yellow band was removed from the sucrose gradient, combined, resuspended in 1 mM NaHCO3, and dounce homogenized. The sample was further centrifuged at 17,000 rpm for 45 minutes at 4° C. (JA-17 rotor). The supernatant was removed, the pellets resuspended in 100 mM Na2 CO3, dounce homogenized and left on ice for 30 minutes. The solution was centrifuged at 27,000 rpm for 1 hour (SW-28 rotor), the supernatant was decanted and the pellet resuspended in 15 mL of 50 mM Tris HCl, pH 7.4 with 1 mM EDTA, and homogenized with a dounce homogenizer. This material was divided into multiple aliquots and frozen at -78° C. until use. Each enzyme sample was frozen once only.

[2] = Extent of hydration / hemiacetal formation of inhibitor carbonyl by 1H and 13C NMR; type: physicochemical; settings: for conversion to hemiacetal: CD3OD, NMR
Source text: FIG. 2 illustrates ^1 H NMR and ^13 C NMR data to establish and quantitate the addition of CD3 OD or D2 O to the electrophilic carbonyl in CD3 OD or acetone-d6. […] Expected trends follow 11>12>8>6≥4.

rat = assay: Sleep monitoring in rat after intra-abdominal injection, electrophysiological methods; type: in vivo; settings: intraperitoneal, mineral oil, four hours
Experimental: Another aspect of the invention is directed to a method for inducing sleep within an oleamide sensitive animal by administrating an effective dose of an […] of oleamide hydrolase. A preferred […] is compound 6. Compound 6 was dissolved in mineral oil and an effective dose was injected into the peritoneum of a rat by intra-abdominal injection. Sleep was monitored for the following four hours. Total sleep time was determined by standard electrophysiological methods. An increase of deep slow-wave sleep (SWS) with a reduction of the waking period was observed.

[3] = Ammonia production from oleamide in the absence of enzyme; type: physicochemical; settings: 100 μM oleamide, pH 10.0
Experimental: The potency of the these compounds against oleamide hydrolysis was evaluated using an ion-selective ammonia electrode (ATI/Orion) to directly measure ammonia formation as the product of the reaction. All Ki s except for that of oleic acid were determined by the Dixon method. (X intercepts of weighted linear fits of [I] versus 1/Rate plots at a constant substrate concentration were converted to Ki 's using the formula Ki =-Xint /[1+[S]/Km ].) The oleic acid Ki was obtained from a non-linear weighted least-squares fit of rate versus substrate and inhibitor concentrations. The assays were done with constant stirring in 10 mL 50 mM CAPS buffer (Sigma) adjusted to pH 10.0, the pH at which the rate of enzymatically catalyzed oleamide hydrolysis is maximal. In all cases which involved Dixon analysis, the substrate concentration was 100 μM. The oleic acid Ki was determined over a range of substrate concentrations from 10 to 100 μM. Substrate and inhibitors were dissolved in DMSO prior to addition to the 50 mM CAPS buffer, generating a final DMSO assay concentration of 1.67%. […] The enzyme concentration was adjusted to produce a rate of roughly 0.2 μM/min in the absence of inhibitor and the rate of ammonia production observed over a period of 7 to 10 minutes.
The enzyme was used as a crude, heterogenous, membrane-containing preparation from rat liver. […]

[4] = Solubility of oleamide in assay buffer; type: physicochemical; settings: buffer with 5% dmso, organic solvent or mixture; buffer containing 5% DMSO; read-out: solubility limit
oleamide hydrolase [5] = target: T1, oleamide hydrolase; assay: pH-rate dependence of oleamide hydrolase cleavage of oleamide; type: biochemical; settings: cleavage of compound 1
Experimental: FIG. 12 illustrates the equations used to determine the pH-Rate dependence. The rate was obtained from the linear portion of the curve which was fit using a standard least squares procedure. These rates were replotted against pH and fit with the shown equation by a weighted non-linear least-squares method.
Crude enzyme was added to a solution of 200 μM oleamide (approximately the solubility limit) 1 in 20 mL buffer at the appropriate pH, containing 5% DMSO. (Concentrations of up to 20% DMSO had only minimal effect on enzyme rates.) A 50 mM sodium citrate/Bis-tris buffer was used for data points in the pH 4-9 range. A 50 mM Bis-tris/CAPS was used for data points in the 8-11 range. At pH 12, the solution was assumed to be self-buffering. At periodic time intervals, 1 mL aliquots were removed and diluted with 9 mL pH 14 buffer. Ammonia concentrations were measured with an ion-selective ammonia electrode (Orion) connected to a 720 A meter (Orion), calibrated against known standards. The rate was obtained from the linear portion of the curve which was fit using a standard least-squares procedure. […]

oleamide hydrolase [6] = target: T1, oleamide hydrolase; assay: Determination of Km for oleamide (Lineweaver-Burke plot); type: biochemical
Experimental: The potency of the inhibitors was determined using an ion selective electrode to measure the production of ammonia as the result of the hydrolysis of 100 μM oleamide (~20 Km) by a membrane bound preparation of oleamide hydrolase. […] Inhibition constants were determined by the Dixon method (FIGS. 4-6).
The enzyme was used as a crude, heterogenous, membrane-containing preparation from rat liver. […] Within solubility limits, all inhibitors achieved 100% inhibition of activity at concentrations of greater than 100 Ki. No detectable activity was found in the absence of added oleamide.
The Km for oleamide was determined as the average Km obtained from four independent assays. Each independent Km was obtained from weighted linear fit of data in a Lineweaver-Burke plot. A fifth concurring Km was obtained as a result of the determination of oleic acid inhibition by non-linear methods. The rate data was fit with the standard Michaelis-Menten kinetic equation.

[7] = pH 10.0, 100 μM oleamide, Dixon method, read-out: Ki
[8] = pH 10.0, 100 μM oleamide, Dixon method, read-out: inhibition constant (Ki,app)

For `CCCCCCCC/C=C\CCCCCCCC(=O)O` [oleic acid, cis-9-octadecenoic acid, reference compound], the somnolescent activity (animals) is listed as “neither of which demonstrate somnolescent activity” and the Ki (oleamide hydrolase [1]; pH 10.0, non-linear weighted least-squares fit, 10 to 100 μM oleamide, read-out: Ki) is listed as 6000 nM.

With `c1cc(SSc2ccncc2)ccn1` [4,4'-dithiodipyridine disulfide, reference compound] the “inhibition of oleamide hydrolase (in words)” value (shortened to “inhibition … (in words)”) (oleamide hydrolase [1]) was “can be inhibited”.

With `CCCCCCCC/C=C\CCCCCCCC(=O)C=[N+]=[N-]` [Compound 21, 1-Diazo-10Z-nonadecen-2-one] the Ki (oleamide hydrolase [1]; [7]) was 18000 nM.

For `O=S(=O)(F)Cc1ccccc1` [phenylmethylsulfonyl fluoride, reference compound], the “inhibition … (in words)” value (oleamide hydrolase [1]) was “can be inhibited”.

In the case of `CCCCCCCC/C=C\CCCCCCCC(=O)CCl` [Compound 3, 1-Chloro-10Z-nonadecen-2-one], the “time dependence of inhibitory activity” value (oleamide hydrolase [1]; first fifteen minutes of incubation, up to solubility limits) is reported as “time independent but moderate inhibition” and the Ki (oleamide hydrolase [1]; [7]) is reported as 700 nM.

For `CCCCCCCCCCCCCCCC(=O)C(O)(O)C(=O)OC(C)(C)C` [Compound 11, tert-Butyl 3-Oxo-2,2-dihydroxyoctadecanoate], the “hydration of carbonyl (in words)” value [2] was “fully hydrated”, the conversion to hemiacetal [2] was 100% and the Ki (oleamide hydrolase [1]; [8]) was 150 nM.

With `CCCCCCCC/C=C\CCCCCCCC=O` [Compound 4] the conversion to hemiacetal [2] was 47%.

For `CCCCCCCC/C=C\CCCCCCCC(=O)C(N)=O` [Compound 7, 2-Oxo-10Z-nonadecenamide], the “relative binding (in words)” value (oleamide hydrolase [1]; comparison between inhibitors) was “binds more tightly”.

With `CCCCCCCC/C=C\CCCCCCC(Cl)C(=O)O` (stereo not drawn) [Compound 20, 2-Chlorcoleic acid] the “mode of binding (in words)” value (oleamide hydrolase [1]) was “appeared to bind reversibly” and the Ki (oleamide hydrolase [1]; [7]) was 300 nM.

In the case of `N` [ammonia], the somnolescent activity (animals) is given as “neither of which demonstrate somnolescent activity”.

In the case of `CCCCCCCC/C=C\CCCCCCC(=O)C(=O)OCC` [Compound 8, Ethyl 2-Oxo-9Z-octadecenoate], the conversion to hemiacetal [2] is reported as 75%, the “increase in binding affinity, C-2 versus C-1 position of electrophilic carbonyl (α-keto esters)” value (oleamide hydrolase [1]; 8 versus 9) is reported as 6 fold and the “relative binding (in words)” value (oleamide hydrolase [1]; comparison between inhibitors) is reported as “bind equally tightly”. It also gave a Ki (oleamide hydrolase [1]; [8]) of 1.4 nM.

In the case of `CCCCCCCC/C=C\CCCCCCC(O)C(N)=O` (stereo not drawn) [Compound 17, 2-Hydroxy-9Z-octadecenamide], the “inhibition … (in words)” value (oleamide hydrolase [1]) is reported as “poor inhibition”.

For `CCCCCCCC/C=C\CCCCCCC(=O)C(F)(F)F` [Compound 13, 1,1,1-Trifluoro-9Z-octadecen-2-one], the “hydration of carbonyl (in words)” value [2] was “almost entirely as hydrates”.

For `CCCCCCCC/C=C/CCCCCCCC(=O)C(F)(F)F` [Compound 14, 1,1,1-Trifluoro-10E-nonadecen-2-one], the “hydration of carbonyl (in words)” value [2] was “almost entirely as hydrates”.

In the case of `CCCCCCCC/C=C\CCCCCCC=O` [Compound 5, 8Z-Heptadecenal], the “relative binding, C-2 versus C-1 position of electrophilic carbonyl (aldehydes)” value (oleamide hydrolase [1]; 5 versus 4) is reported as “five times more tightly than 4”.

For `CCCCCCCC/C=C\CCCCCCCC(=O)C(F)(F)F` [Compound 12, 1,1,1-Trifluoro-10Z-nonadecen-2-one], the “hydration of carbonyl (in words)” value [2] was “almost entirely as hydrates”, the conversion to hemiacetal [2] was 100% and the Ki (oleamide hydrolase [1]) was 1.2 nM. For the same molecule, the “preference for cis double bond at 9 position” value (oleamide hydrolase [1]) was “approximately an order of magnitude more tightly than the trans double bond containing 14 or the saturated derivative 15”, the “relative binding (in words)” value (oleamide hydrolase [1]) was “bind equally tightly” and the “type of inhibition (Lineweaver-Burke plot)” value (oleamide hydrolase [1]) was “competitive”.

In the case of `CCCCCCCC/C=C\CCCCCCC(O)C(=O)O` (stereo not drawn) [Compound 18], the “inhibition … (in words)” value (oleamide hydrolase [1]) is reported as “poor inhibition”.

In the case of `O=C(O)CN(CCN(CC(=O)O)CC(=O)O)CC(=O)O` [EDTA, reference compound], the “inhibition … (in words)” value (oleamide hydrolase [1]) is reported as “not by 1 mM EDTA”.

In the case of `[Cl][Hg][Cl]` [HgCl2, reference compound], the “inhibition … (in words)” value (oleamide hydrolase [1]) is reported as “can be inhibited”, the IC50 (oleamide hydrolase [1]; HgCl2) is reported as 700 nM and the Ki (oleamide hydrolase [1]; HgCl2, read-out: Ki, app) is reported as 37 nM.

For `CCCCCCCC/C=C\CCCCCCC(=O)C(N)=O` [Compound 6, 2-Oxo-9Z-octadecenamide], the conversion to hemiacetal [2] was 48%, the “increase of deep slow-wave sleep (SWS)” value (rat) was “approximately 30%” and the reduction of waking (rat) was “a similar percent of reduction of waking”.

With `CCCCCCCCCCCCCCCCCC(=O)C(F)(F)F` [Compound 15] the “hydration of carbonyl (in words)” value [2] was “almost entirely as hydrates”.

In the case of `CCCCCCCC/C=C\CCCCCCCC(N)=O` [Compound 1, cis-9-octadecenamide], the “quantity inducing physiological sleep” value (animals; injected intravascularly) is given as “nanomolar quantities”, the “rate of ammonia production in the absence of enzyme” value [3] is given as “only a very minimal rate of ammonia production” and the solubility [4] is given as about 200 µM (≈ 56.3 µg/mL). For the same molecule, the “pH of rate maximum” value (oleamide hydrolase [5]) was 10.0, the “dependence of reaction rate on substrate concentration” value (oleamide hydrolase [6]; 30-100 μM) was “essentially a zero order dependence on substrate concentration” and the Km (oleamide hydrolase [6]; average of four independent assays) was 5 ± 2 µM.

With `CCCCCCCC/C=C\CCCCCCCC(OC)OC` [Compound 16] the “inhibition … (in words)” value (oleamide hydrolase [1]) was “poor inhibition”.
